Reference: patent US20250199015A1, “CYCLIN-DEPENDENT KINASE 2 INHIBITORS FOR MEDICAL TREATMENT” (INCYCLIX BIO, LLC, priority 2022, published 2025)
Marks after values point to notes of the source that are not given here.

Assays:
H526 cells = assay: CellTiter Glo cell proliferation assay (single agent and chemotherapy combination); type: cell-based, human; details: 6 days
Method: (§1) Plates returned to incubator for six additional days. On day six post dosing, plates were removed and treated with CellTiter Glo reagent following manufacturer's specifications. Plates incubated 45 minutes at room temperature and run on a Biotek luminometer with 1 sec/well detection. Results were converted to Microsoft Excel and transferred to GraphPad Prism for analysis.
Cells were plated at 250 cells per well in white wall/clear bottom plates and incubated overnight. […] Plates returned to the incubator for six additional days. On day six post dosing, plates were removed and treated with CellTiter Glo reagent following manufacturer's specifications. Plates incubated 45 minutes at room temperature and run on a Biotek luminometer with 1 sec/well detection. Results were converted to Microsoft Excel and transferred to GraphPad Prism for analysis.
(§2) Dose curves ranged from 300 pM to 10 μM in triplicate and treatments lasted for 6 days. Plates were removed from incubator at each specified timepoint and treated with CellTiter-Glo (Promega, Inc) following manufacturer specifications. Plates were then read on CLARIOstar luminometer with 1 sec/well integration.
as §2, with “integration. Results were converted to Microsoft Excel and transferred to GraphPad Prism for Analysis.” for “integration.”

SHP77 cells = assay: as above; type: cell-based, human; details: 6 days
Method: as §1, §2
as §2, with “integration. Results were converted to Microsoft Excel and transferred to GraphPad Prism for Analysis.” for “integration.”

H69 (NCIH69) cells = assay: as above; type: cell-based, human; details: 6 days
Method: as §1, §2
as §2, with “integration. Results were converted to Microsoft Excel and transferred to GraphPad Prism for Analysis.” for “integration.”

[1] = Salt screen storage at 40° C./75% RH, XRPD form; type: physicochemical; details: ca. 24 hours
Method: XRPD analysis was carried out on any isolated solids or gums as described in Example 10 below. The XRPD plate, and the isolated solids, were dried at 40° C. for ca. 24 hours and re-analyzed by XRPD. The XRPD plate was further dried at 40° C./75% RH for ca. 24 hours and XRPD analysis was repeated.
After three days, observations were recorded and solids were isolated by centrifugation. The wet solids were analyzed by XRPD. Solids were dried at 40° C. under vacuum for 72 hours and re-analyzed by XRPD. Solids were dried at 40° C./75% RH for 18 hours and re-analyzed by XRPD.

[2] = system: T47D parental and therapy-resistant cells; assay: Cell cycle by BrdU flow cytometry in therapy-resistant cells; type: cell-based, human
Method: The therapy resistant cells were previously incubated with abemaciclib, fulvestrant, and/or palbociclib for prolonged periods to the point of developing drug resistance. Cells were plated in Corning 6 well tissue culture treated plates. Cells were treated for 7 days. Media was spiked with 10 μM BrdU prior to collection. Cells were washed in PBS, trypsinized, collected and centrifuged at 300 RCF for 5 mins. Cells were resuspended in cell culture media and transferred into a 96 well V-bottom plate with roughly 300,000 cells per well. Cells were then stained using the Near-IR Fixable Viability Stain (Invitrogen Cat. L34976) for 20 mins at room temperature, protected from light. Cells were fixed and permeabilized using eBioscience FoxP3/Transcription Factor Staining Buffer Set (Cat. 00-5523-00). DNA was denatured using 2N HCl+0.5% (v/v) Triton X-100 for 30 mins room temperature, agitating every 5-10 mins. The acid was neutralized using 0.1M Na2B4O7·10H2O (pH 8.5) followed by 0.5% BSA in PBS. Cells were then stained with BrdU antibody (Clone 3D4, BioLegend Cat. 364118) for 1 hour at room temperature. Prior to acquisition on the BD A3 Symphony, DNA was stained for 30 minutes using FxCycle Violet ReadyFlow Reagent.
Cell staining was then conducted to monitor cellular proliferation and perform cell cycle analysis of these therapy-resistant cells. […] Similarly, abemaciclib- and fulvestrant-resistant (LYFR) cells administered abemaciclib and fulvestrant were not substantially arrested in the G1 phase (FIG. 147H).

[3] = system: T47D human breast carcinoma cells; assay: Crystal violet colony assay; type: cell-based; details: 300 nM, weeks 2-8
Method: (§3) The T47D human breast carcinoma cell line was grown in RPMI-1640/1× Glutamax/1× Insulin/10% fetal bovine serum and was plated at 10,000 cells/well in Corning 6-well tissue culture treated plates. Cells were incubated at 37° C. for 24 hours prior to addition of treatment. […] Plates were collected at week 2 and 3, at week 3, 2 plates with only palbociclib were switched to combination treatment. The remaining plates were collected at weeks 5 and 8. Collection was performed by washing wells with PBS before incubating 5 minutes with 0.1% crystal violet/20% methanol. Dye was removed and wells washed 4 times with PBS before being scanned at 1200 dpi. Image J was used to count the % area and colony size for each well (FIG. 8F-I). GraphPad Prism was used for analysis. Cells treated with DMSO control retained large colonies that inhabited the majority of the well surface area from week 3 beyond (FIG. 8F).
as §3, with “6 well tissue culture treated plates. The BT474 human breast carcinoma cell line was grown in DMEM/1× Glutamax/1× Insulin/10% fetal bovine serum and was plated at 25,000 cells/well in Corning 6 well” for “6-well”, “CDK4/6i” for “palbociclib”, “well. Graph pad” for “well (FIG. 8F-I). GraphPad Prism”, “analysis.” for “analysis. Cells treated with DMSO control retained large colonies that inhabited the majority of the well surface area from week 3 beyond (FIG. 8F).”
The T47D human breast carcinoma cell line was grown in RPMI-1640/1× Glutamax/1× Insulin/10% fetal bovine serum and was plated at 10,000 cells/well in Corning 6 well tissue culture treated plates. Cells were incubated at 37° C. for 24 hours prior to addition of treatment. […] Plates were collected at weeks 2 and 3. Collection was performed by washing wells with PBS before incubating 5 minutes with 0.1% crystal violet/20% methanol. Dye was removed and wells washed 4 times with PBS before being scanned at 1200 dpi. Image J was used to count the percent area and colony size for each well and Graph pad was used for analysis.

Structure (SMILES): CC[C@@]1(O)C(=O)OCc2c1cc1n(c2=O)Cc2cc3ccccc3nc2-1 [camptothecin, (S)-4-ethyl-4-hydroxy-1H-pyrano[3′,4′:6,7]indolizino[1,2-b]quinoline-3,14-(4H, 12H)-dione, reference compound]
- cellular proliferation, chemotherapeutic alone compared with Compound I alone (H526 cells): lower cellular proliferation IC50 values
- cellular proliferation, chemotherapeutic alone compared with Compound I alone (SHP77 cells): lower cellular proliferation IC50 values
- cellular proliferation, chemotherapeutic alone compared with Compound I alone (H69 (NCIH69) cells): lower cellular proliferation IC50 values

Structure (SMILES): NS(=O)(=O)c1ccc(Nc2ncc3cc4n(c3n2)C2(CCCCC2)C(=O)NN4)cc1.O=C(O)/C=C\C(=O)O [maleate Pattern 5]
- XRPD form after storage at 40° C./75% RH ([1]; listed as Maleic Acid Salt Pattern 5): converted to Pattern 1*

Structure (SMILES): NS(=O)(=O)c1ccc(Nc2ncc3cc4n(c3n2)C2(CCCCC2)C(=O)NN4)cc1.O=C(O)CC(O)(CC(=O)O)C(=O)O [citrate Pattern 1]
- XRPD form after storage at 40° C./75% RH ([1]; listed as Citric Acid Salt Pattern 1): poorly crystalline material

Structure (SMILES): CS(=O)(=O)O.NS(=O)(=O)c1ccc(Nc2ncc3cc4n(c3n2)C2(CCCCC2)C(=O)NN4)cc1 [mesylate Pattern 4]
- XRPD form after storage at 40° C./75% RH [1]: converted to Pattern 1

Structure (SMILES): CCN1CCN(Cc2ccc(Nc3ncc(F)c(-c4cc(F)c5nc(C)n(C(C)C)c5c4)n3)nc2)CC1 [abemaciclib, reference compound]
- cell cycle arrest ([2]; abemaciclib-resistant (LYR) cells): substantially less frequently in the G1 phase
- cell cycle arrest ([2]; parental (PAR) cells): arrested parental (PAR) cell lines in the G1 phase

Structure (SMILES): CS(=O)(=O)O.NS(=O)(=O)c1ccc(Nc2ncc3cc4n(c3n2)C2(CCCCC2)C(=O)NN4)cc1 [mesylate Pattern 3]
- XRPD form after storage at 40° C./75% RH [1]: converted to Pattern 1

Structure (SMILES): Cl.NS(=O)(=O)c1ccc(Nc2ncc3cc4n(c3n2)C2(CCCCC2)C(=O)NN4)cc1 [HCl Pattern 2]
- XRPD form after storage at 40° C./75% RH [1]: No form changes were observed

Structure (SMILES): NS(=O)(=O)c1ccc(Nc2ncc3cc4n(c3n2)C2(CCCCC2)C(=O)NN4)cc1.O=P(O)(O)O [phosphate Pattern 6]
- XRPD form after storage at 40° C./75% RH [1]: formation of amorphous material
- XRPD form after storage at 40° C./75% RH ([1]; listed as Phosphoric Acid Salt Pattern 6): amorphous material

Structure (SMILES): NS(=O)(=O)c1ccc(Nc2ncc3cc4n(c3n2)C2(CCCCC2)C(=O)NN4)cc1.O=C(O)/C=C\C(=O)O [maleate Pattern 4]
- XRPD form after storage at 40° C./75% RH ([1]; listed as Maleic Acid Salt Pattern 4): converted to Pattern 6

Structure (SMILES): COc1cccc2c1C(=O)c1c(O)c3c(c(O)c1C2=O)C[C@@](O)(C(=O)CO)C[C@@H]3O[C@H]1C[C@H](N)[C@H](O)[C@H](C)O1 [doxorubicin, reference compound]
- cellular proliferation, chemotherapeutic alone compared with Compound I alone (H526 cells): better inhibition
- cellular proliferation, chemotherapeutic alone compared with Compound I alone (SHP77 cells): better inhibition
- cellular proliferation, chemotherapeutic alone compared with Compound I alone (H69 (NCIH69) cells): better inhibition

Structure (SMILES): NS(=O)(=O)c1ccc(Nc2ncc3cc4n(c3n2)C2(CCCCC2)C(=O)NN4)cc1.O=C(O)/C=C\C(=O)O [maleate Pattern 2]
- XRPD form after storage at 40° C./75% RH ([1]; listed as Maleic Acid Salt Pattern 2): loss of crystallinity

Structure (SMILES): CC(=O)c1c(C)c2cnc(Nc3ccc(N4CCNCC4)cn3)nc2n(C2CCCC2)c1=O [palbociclib, reference compound]
- colony size and percent plate area [3]: cells expanded to cover a large percentage of the plate area

Structure (SMILES): NS(=O)(=O)c1ccc(Nc2ncc3cc4n(c3n2)C2(CCCCC2)C(=O)NN4)cc1.O=C(O)CC(O)(CC(=O)O)C(=O)O [citrate Pattern 2]
- XRPD form after storage at 40° C./75% RH ([1]; listed as Citric Acid Salt Pattern 2): new poorly crystalline pattern designated Pattern 4

Structure (SMILES): NS(=O)(=O)c1ccc(Nc2ncc3cc4n(c3n2)C2(CCCCC2)C(=O)NN4)cc1.O=S(=O)(O)c1ccccc1 [besylate Pattern 3]
- XRPD form after storage at 40° C./75% RH [1]: loss in crystallinity

Structure (SMILES): CS(=O)(=O)O.NS(=O)(=O)c1ccc(Nc2ncc3cc4n(c3n2)C2(CCCCC2)C(=O)NN4)cc1 [mesylate Pattern 2]
- XRPD form after storage at 40° C./75% RH [1]: converted to Pattern 1

Structure (SMILES): Br.NS(=O)(=O)c1ccc(Nc2ncc3cc4n(c3n2)C2(CCCCC2)C(=O)NN4)cc1 [HBr Pattern 1]
- XRPD form after storage at 40° C./75% RH [1]: loss of crystallinity
